Results taken from US6503545B1 (Brandeis University, priority 1999, dated 2003).
Read-outs that look alike come from different tables or passages of the source.

Experiments:
[1] = 400 IU daily soft gel capsule, six years, 601 subjects; cited from earlier work
[2] = cited from earlier work; for Vit. E/Chol. ratio Incr.: above basal fasting ratio
[3] = per 1 mg, National Formulary; cited from earlier work
LDL = conditions: gel-capsule, ex vivo lag time; cited from earlier work
[4] = 150 mg natural and 150 mg synthetic daily in soft gelatin capsule, ten days; cited from earlier work
[5] = cited from earlier work
[6] = in vivo; cited from earlier work
[7] = Stability of vitamin E in fortified milks and orange juice during refrigerated storage; assay type: physicochemical; conditions: 2-3 weeks in refrigerated milk
Text: The stability of all-rac E, oil was also monitored in regular 1% milkfat-containing milk (abbreviated “regular milk”). […] Although the starting levels of vitamin E were not identical in the beverages studied, all products were stored identically (see above) up to the time of the vitamin assay. Since the nominal shelf-life for milk is two weeks, and for refrigerated orange juice is four weeks, comparisons of vitamin E losses were made after three weeks storage.

[8] = ingestion of 1200 IU per day; cited from earlier work
[9] = Loss of vitamin E during milk processing (pasteurization); assay type: physicochemical; conditions: heating, e.g. pasteurization
Description: In addition, as Applicant has described, normal processing of milk and other food products commonly includes heating, e.g., pasteurization.
Preparation of Vitamin E-Fortified Milks: Pasteurized non-fat (skim) milk containing 2,000 I.U. per quart vitamin A palmitate and 400 I.U. per quart vitamin D2 was prepared by H.P. Hood, Inc. (Chelsea Mass.). […] Fortified cream or oil was then blended with non-fortified skim milk to make three vitamin E-fortified milks containing fat (see below). […] Milk processing losses of vitamin E were measured and were compensated, by including an excess of vitamin E in the each milk formulation equal to the measured processing loss. Four milks were formulated as follows: […]
Preparation of Vitamin E-Fortified Milks: Preparation of milks, and the packaging and storage of milks by H.P. Hood, Inc. (Chelsea Mass.) were carried out as described for vitamin E-fortified milks in the first clinical study (see milk #3), except that the new milk (milk #21) was fortified with only 15 IU of all-rac-α-tocopherol acetate per serving. A portion of the milk batch was prepared without vitamins A and D (milk #20).

[10] = supplements greater than 100 IU per day, 6 years, elderly; cited from earlier work

## CC(=O)Oc1c(C)c(C)c2c(c1C)CCC(C)(CCCC(C)CCCC(C)CCCC(C)C)O2 (racemic) [all-rac-α-tocopherol acetate]
[1]
  average increase in plasma vitamin E: 83%
[2]; capsules 25 IU/day, above basal fasting level
  Plasma Vit E Increase: 19%
[2]; capsules 100 IU/day
  Vit. E/Chol. ratio Incr.: 35%
[2]; capsules 200 IU/day
  Vit. E/Chol. ratio Incr.: 65%
[2]; capsules 400 IU/day
  Vit. E/Chol. ratio Incr.: 115%
[3]
  specific activity (IU per milligram): 1.00 IU

## Cc1c(C)c2c(c(C)c1O)CCC(C)(CCCC(C)CCCC(C)CCCC(C)C)O2 (racemic) [all-rac-α-tocopherol]
LDL
  minimum dose which significantly decreases the susceptibility of LDL to oxidation: 400 IU/per day
[3]
  specific activity (IU per milligram): 1.10 IU

## CC(=O)Oc1c(C)c(C)c2c(c1C)CC[C@@](C)(CCC[C@H](C)CCC[C@H](C)CCCC(C)C)O2 [RRR-α-tocopherol acetate]
[4]
  competitive bioavailability in plasma versus all-rac-α-tocopherol acetate: up to two-fold greater
[3]
  specific activity (IU per milligram): 1.36 IU

## Cc1c(C)c2c(c(C)c1O)CC[C@@](C)(CCC[C@H](C)CCC[C@H](C)CCCC(C)C)O2 [RRR-α-tocopherol]
[3]
  specific activity (IU per milligram): 1.49 IU
[5]; 400-800 IU daily dose, basal 34.2 μmol/L
  plasma vitamin E level, elevated: 58 µmol/L
[5]; 400-800 IU daily dose
  average elevation in the plasma vitamin E level above the basal fasting level: 70%
[5]; 400 IU once per day in capsules, patients with coronary atherosclerosis
  reduction of the risk of non-fatal heart attacks: 77%

## Cc1c(C)c2c(c(C)c1O)CC[C@@](C)(CCC[C@H](C)CCC[C@H](C)CCCC(C)C)O2 [α-tocopherol]
[6]
  supplemented dose excreted in the feces: 80-90%

## vitamin E
[7]
  shelf-life loss of vitamin E: about 15%
[8]
  adverse effects: no adverse effects have been observed
[9]
  loss of vitamin E associated with processing, generally: 20-25%
  loss of vitamin E associated with processing, typically: 10-30%
[10]
  reduction of CHD mortality: 41-47%
  reduction of all-cause mortality: 27-34%
  reduction of cancer mortality: 22-23%
